Results on two molecules are retold here after article PMC9146163, “Novel Au Carbene Complexes as Promising Multi-Target Agents in Breast Cancer Treatment” (Pharmaceuticals, 2022).

Each structure is given as a SMILES string.

Holding throughout (type): cell-based, human
One series relates to NF-κB in MCF-7 cells. The series can be described thus: NF-κB immunofluorescence, MCF-7. Conditions: IC50 value, 24 h. The method, then: (§1) The MitoTracker Deep Red FM probe (MitoTracker Mitochondrion-Selective Probes, Invitrogen European Headquarters, Paisley, PA4 9RF, UK) was used for mitochondrial staining, as previously described. For immunofluorescence analysis, the cells were seeded and further processed, as reported by Iacopetta et al.. The primary antibodies used were: rabbit anti-β-Actin and vimentin (Santa Cruz Biotechnology, Dallas, TX, USA), mouse anti cytochrome c and NF-κB p65 (Abcam, Cambridge, UK), diluted 1:100 in bovine serum albumin (BSA) 2% overnight at 4 °C. The secondary antibodies were: Alexa Fluor® 488 conjugate goat-anti-rabbit and Alexa Fluor® 568 conjugate goat-anti-mouse (Thermo Fisher Scientific, MA, USA), diluted 1:500 and incubated for 2h at 37 °C. DAPI 0.2 μg/mL (Sigma Aldrich, Milan, Italy) was used for nuclei staining. […] All the images were acquired and processed using the LAS-X software.

The subject of series [1] is cytochrome c in MCF-7 cells. The series can be described thus: Mitochondria staining and cytochrome c detection, MCF-7. The settings on record: IC50 value, 24 h. The protocol: as §1
The test system of the next series is vimentin in MCF-7 cells. The series can be described thus: Vimentin expression (immunofluorescence), MCF-7. The settings on record: fluorescence quantification; IC50 value, 24 h. The protocol: as §1
Protein lysates underwent the SDS-PAGE process, as already defined. Then lysates were resolved on a 7.5% SDS polyacrylamide gel, transferred to a nitrocellulose membrane, and probed with antibodies against vimentin and GAPDH (Santa Cruz Biotechnology, Dallas, TX, USA). […] The images are representative of three independent experiments.

In series [2] the test system is caspases 3/7, 8, and 9 in MDA-MB-231 cells. The series can be described thus: Caspase-Glo assay, MDA-MB-231. The settings on record: IC50 value, 24 h; vs vehicle. The protocol:
The activities of caspases 3/7, 8, and 9 were measured by using the Caspase-Glo Assay according to the manufacturer’s guidelines (Caspase-Glo 3/7, 8, and 9 Assay Systems, Promega Corporation, Madison, WI, USA), as already described. The luminescence was detected in a plate-reading luminometer (Synergy H1 Hybrid Reader, BioTek) for 30 min to 3 h (λex/em = 490/570 nm). Results were reported as signal-to-noise ratio (background was determined from the culture medium without cells). The experiments were performed in triplicate.

In series [3] the test system is NF-κB in MDA-MB-231 cells. Description: NF-κB immunofluorescence, MDA-MB-231. Conditions: IC50 value, 24 h. The protocol:
as §1

For another series, the system named is Hek-293 cells. Description: MTT assay, normal Hek-293. Conditions: up to the concentration of 200 μM.
For series [4], the system named is β-actin in MDA-MB-231 cells. The series can be described thus: Actin immunofluorescence, MDA-MB-231. Conditions: 24 h; compound 1 at its IC50 value, LA 0.1 µM. The method, then: as §1
Series [5] relates to cytochrome c in MDA-MB-231 cells. Description: Mitochondria staining and cytochrome c detection, MDA-MB-231. The settings on record: IC50 value, 24 h. The protocol: as §1
A further series concerns MDA-MB-231 cells. The series can be described thus: TUNEL assay, MDA-MB-231. The settings on record: IC50, 24 h. The source says: Images are representative of three independent experiments.

Consider `CC(=O)[O-].Cn1c(Cl)c(Cl)n(CC(O)c2ccccc2)[c]1=[Au+]=[c]1n(C)c(Cl)c(Cl)n1CC(O)c1ccccc1` (centres unmarked) [Compound 6, Bis [4,5-dichloro-(N-methyl, N’(2-hydroxy-2-phenyl-ethyl)imidazole-2-ylidine]gold(I)] acetate], for which, in the series on NF-κB in MCF-7 cells, the “NF-κB translocation, MCF-7” value is “reduced the translocation of NF-κB from the cytoplasm to the nucleus”. In addition, the “cytochrome c localization, MCF-7” value in series [1] was “cytochrome c is localized within mitochondria”. Moreover, the “reduction of vimentin expression with respect to the control, MCF-7” value in the series with vimentin in MCF-7 cells is given as “two-fold”.
Regarding `Cn1ccn(CC([O-])c2ccccc2)[c]1=[Au+]=[c]1n(C)ccn1CC([O-])c1ccccc1.[Cl-].[Na+].[Na+]` (centres unmarked) [Compound 1], in [2], the “caspase-3 and -7 activity, MDA-MB-231” value is given as “clear increase”; the “caspase-8 activity, MDA-MB-231” value is recorded as “significant rise”; the “caspase-9 activity, MDA-MB-231” value was “no increase”. Also, the “NF-κB translocation, MDA-MB-231” value in series [3] is listed as “reduced the translocation of NF-κB from the cytoplasm to the nucleus”. Further, in the series on Hek-293 cells, the “cytotoxicity against the normal Hek-293 cells (in words)” value is on record as “complete lack of cytotoxicity”. For the same molecule, in series [4], the “actin organization in MDA-MB-231 cells” value is given as “altered actin bundles organization”. Further, the “cytochrome c localization, MDA-MB-231” value in [5] is reported as “cytochrome c is localized within mitochondria”. Also, the “apoptosis (TUNEL), MDA-MB-231” value with MDA-MB-231 cells was “induced apoptosis”.
